Experimental data as given in PMC4213378, “Pharmacokinetics and Efficacy of the Spleen Tyrosine Kinase Inhibitor R406 after Ocular Delivery for Retinoblastoma” (Pharmaceutical Research, 2014).

Legend:
RB355 cells = assay: EdU incorporation (DNA synthesis) in RB355 cells; format: cell-based; details: 5 μM R406, 0-72 h exposure
Procedure: To determine if the lack of evidence of efficacy of subconjunctival R406 in a solution formulation was due to suboptimal ocular exposure, we performed a pharmacokinetic experiment. Briefly, 10 μl of R406 solution formulation was delivered to each eye of 15 mice and the plasma and vitreous were harvested at different time points (0.5, 1, 2, 4, and 8 h). The concentration of R406 was measured at each time point in each tissue and the concentration of drug was plotted as a function of time (Fig. 2). The 4 h and 8 h data are not shown, as the majority of R406 concentrations in these samples were BLOQ. […] Importantly, the maximal concentration achieved (0.05 μM) was well below the concentration required to kill the most sensitive retinoblastoma cell line (RB355 in culture, Fig. S3). RB355 cells in culture were treated with DMSO, 1, 2.5, or 5 μM of R406 for varied exposure durations (0, 6, 12, 24, 48 and 72 h). […] Incorporation of 5-ethynyl-2′-deoxyuridine (EdU) was used to detect DNA synthesis. […] Viability of RB355 cells in culture is reduced to 50% of the viability of DMSO treated cells when exposed to 2.5 μM R406 for an exposure duration between 24 and 48 h or 5 μM R406 for an exposure duration between 12 and 24 h.
RB335 cells were seeded in 6-well dishes. […] Luminescence was read after 15 min on an Envision plate reader (Perkin Elmer). […]

[1] = Storage stability of R406 in murine plasma samples; format: physicochemical, mouse
Procedure: Stability: The extracted solution stability of R406 from murine plasma or vitreous was assessed at low (41.2nM), medium (370.4 nM), and high (3333.3 nM) concentrations in triplicate at room temperature. Blank murine plasma was spiked with the indicated concentrations of R406 and extracted solutions were stored at room temperature for day 0, and day 2. The short-term stability of R406 in murine plasma or vitreous at -20 °C was assessed at three concentrations in triplicate. Samples were thawed at day 1 and 2. At day 2, protein precipitation was performed and samples treated with internal standard/acetonitrile as described previously: for murine plasma samples, 50 µL of sample was quenched by addition of 100 µL of 5 mg/L OSI-906 (internal standard) in 100% acetonitrile, followed by plate sealing, shaking and centrifuging, transfer of 100 µL of supernatant injection of 10 µL of supernatant onto the LC–MS/MS system; for murine vitreous samples, 5 µL of sample quenched by addition of 45 µL of 5 mg/L OSI-906 (internal standard) in 100% acetonitrile, followed by plate sealing, shaking and centrifuging, transfer of 40 µL of supernatant injection of 10 µL of supernatant onto the LC–MS/MS system. Long term stability of R406 in murine plasma or vitreous at −80 °C was assessed. Unextracted spiked murine plasma or vitreous at low, medium, and high levels was frozen at −80 °C for 0, 7, and 14 days. Samples were thawed immediately extracted with acetonitrile/OSI-906, and quantitated. All samples were analyzed in triplicates.

[2] = Concentration and stability of R406 in cosolvent solution formulation; format: physicochemical
Procedure: R406 stability in cosolvent solution: Precipitation of R406 in the cosolvent solution causes a drop in concentration after 48 hours of storage at room temperature (Table S3), but there is no loss of purity indicating R406 is chemically stable in the co-solvent solution for 48 hours at room temperature (Figure S4).

retinoblastoma cells = tested on: retinoblastoma cells; set-up: method as in PMID 22237022; details: cited from earlier work
[3] = Storage Time = 48 hr, room temperature

Q: With `COc1cc(Nc2ncc(F)c(Nc3ccc4c(n3)NC(=O)C(C)(C)O4)n2)cc(OC)c1OC` [R406] as the molecule, how does the “proportion of cells that incorporated EdU” value (RB355 cells) read?
A: decreased with increasing exposure time

Q: And the “time extracted samples were stable” value ([1]; extracted from murine plasma, room temperature)?
A: at least 48 hours

Q: And the Accuracy% ([1]; extracted plasma samples in autosampler for 2 days, injected at Day 3, High Control 3333.3 nM)?
A: 94.4%

Q: What about the Accuracy% ([1]; extracted plasma samples in autosampler for 2 days, injected at Day 3, Low Control 41.2 nM) of the same molecule?
A: 97.4%

Q: And the Accuracy% ([1]; extracted plasma samples in autosampler for 2 days, injected at Day 3, Middle Control 370.4 nM)?
A: 97.6%

Q: What about the Accuracy% ([1]; murine plasma at -20°C, thawed on Day 2, injected at Day 3, High Control 3333.3 nM) of the same molecule?
A: 95.6%

Q: And the Accuracy% ([1]; murine plasma at -20°C, thawed on Day 2, injected at Day 3, Low Control 41.2 nM)?
A: 109.2%

Q: What about the Accuracy% ([1]; murine plasma at -20°C, thawed on Day 2, injected at Day 3, Middle Control 370.4 nM) of the same molecule?
A: 98.4%

Q: And the Accuracy% ([1]; murine plasma at -20°C, thawed on Day 3, injected at Day 3, Middle Control 370.4 nM)?
A: 101.5%

Q: And the Accuracy% ([1]; murine plasma at -80°C, injected at Day 8, High Control 3333.3 nM)?
A: 84.3%

Q: What about the Accuracy% ([1]; murine plasma at -80°C, injected at Day 8, Low Control 41.2 nM) of the same molecule?
A: 87.8%

Q: What about the Accuracy% ([1]; murine plasma at -80°C, injected at Day 8, Middle Control 370.4 nM) of the same molecule?
A: 93.1%

Q: What about the Accuracy% ([1]; murine plasma at -80°C, injected at Day 15, High Control 3333.3 nM) of the same molecule?
A: 89.5%

Q: What about the Accuracy% ([1]; murine plasma at -80°C, injected at Day 15, Low Control 41.2 nM) of the same molecule?
A: 84.8%

Q: What about the Accuracy% ([1]; murine plasma at -80°C, injected at Day 15, Middle Control 370.4 nM) of the same molecule?
A: 84.7%

Q: And the “time spiked samples were stable” value ([1]; murine plasma stored at -20°C)?
A: at least 72 hours

Q: And the “time spiked samples were stable” value ([1]; murine plasma stored at -80°C)?
A: ≥ 14 days

Q: And the “Average Concentration in cosolvent formulation” value ([2]; Initial Concentration, room temperature)?
A: 743.6 µM

Q: What about the “Average Concentration in cosolvent formulation” value [2, 3] of the same molecule?
A: 252.5 µM

Q: And the “Percentage of Initial Concentration in cosolvent formulation” value [2, 3]?
A: 34%

Q: And the “maximum concentration of R406 in solution formulation” value ([2]; cosolvent solution formulation with FDA approved ophthalmic adjuvants)?
A: approximately 900 μM

Q: And the “time chemically stable in cosolvent solution formulation (no loss of purity)” value ([2]; room temperature)?
A: 48 h

Q: And the “induction of caspase-mediated cell death of retinoblastoma cells in vitro” value (retinoblastoma cells)?
A: can induce caspase-mediated cell death
